In patent USRE39104E1, “Process for the production of dry pharmaceutical forms and the thus obtained pharmaceutical compositions” (Laboratoires Effik, priority 1994, dated 2006) one finds solubility in water data, which are given here for one compound.

This data set in a line: Solubility in water. The format is physicochemical. On the procedure: The dosage of the amount of Medroxy progesterone acetate thus dissolved in water was determined by spectrophotometry at 241 nm.

For the compound `CC(=O)O[C@]1(C(C)=O)CC[C@H]2[C@@H]3C[C@H](C)C4=CC(=O)CC[C@]4(C)[C@H]3CC[C@@]21C` [Medroxy progesterone acetate], the solubility in water entry is recorded as “very low”.
